Earlier results as cited in patent US12384832B2 (priority 2019, dated 2025).
Where two headings read alike, the source gives them in different places.

Biological target: TEM-1 (Escherichia coli, UniProt P62593)
Settings: read-out: KM TEM-1, cited from earlier work

TEM-1, sequence (P62593 24-286 limits assumed): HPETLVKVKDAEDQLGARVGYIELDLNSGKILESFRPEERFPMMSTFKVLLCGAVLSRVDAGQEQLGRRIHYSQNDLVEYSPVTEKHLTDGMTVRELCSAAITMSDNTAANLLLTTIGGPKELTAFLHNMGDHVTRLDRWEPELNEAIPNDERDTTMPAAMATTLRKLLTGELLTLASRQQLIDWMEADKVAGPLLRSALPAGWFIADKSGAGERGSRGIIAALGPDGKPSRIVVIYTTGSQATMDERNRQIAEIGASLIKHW

Which Km (substrate hydrolysis) does the source give for `CC1(C)S[C@@H]2[C@H](NC(=O)[C@H](N)c3ccccc3)C(=O)N2[C@H]1C(=O)O` [ampicillin] here?
The Km was 40 µM.

With `CC1(C)S[C@@H]2[C@H](NC(=O)Cc3ccccc3)C(=O)N2[C@H]1C(=O)O` [benzylpenicillin] as the compound, how does the Km (substrate hydrolysis) read?
The Km was 26 µM.

Which Km does the source give for `O=C(Cc1cccs1)N[C@@H]1C(=O)N2C(C(=O)[O-])=C(C[n+]3ccccc3)CS[C@H]12` [cefaloridine] here?
Its Km is 244 µM.
